In data set [1] the test system is CQ-sensitive 3D7 strain of P. falciparum. The data set is described as follows: SYBR green I-based parasite growth inhibition assay, 3D7 strain. In kind it is cell-based, Plasmodium falciparum. To be noted: for EC50: 72 h, read-out: EC50.
The test system of data set [2] is multidrug resistant strain Dd2. The data set is described as follows: SYBR green I-based parasite growth inhibition assay, Dd2 strain. In kind it is cell-based, Plasmodium falciparum.
The test system of data set [3] is Normal African Green Monkey Kidney Epithelial (Vero) cells. The data set is described as follows: MTT cell proliferation (cytotoxicity) assay, Vero cells. In kind it is cell-based. As to the method:
(§1) By principle, the soluble MTT is reduced to an insoluble colored formazan product by mitochondrial succinate dehydrogenase in viable cells. Normal African Green Monkey Kidney Epithelial (Vero) and the Human Liposarcoma (SW872) cells were maintained in MEM supplemented with 10% FBS, 1% Glutamine and 1% penicillin-streptomycin. Confluent cells were trypsinized and seeded at a density of 2500 cells/well (total volume 90 μL) in 96-well plates and incubated for 24 h prior to drug treatment. Two-fold serial dilutions of the compounds (100-0.0488 μM) were added to the plates and incubated under humidified conditions at 37° C. for 48 h. Absorbance of the formed formazan product was measured at 550 nm wavelength using a SUNRISE microtiter plate reader. […] Selectivity indices (SI=CC50/EC50) were calculated as an indication of toxicity relative to the observed antiplasmodial activity.

Data set [4] concerns Human Liposarcoma (SW872) cells. As to the kind of experiment: MTT cell proliferation (cytotoxicity) assay, SW872 cells. It counts as cell-based. As to the method:
as §1

For data set [5], the system named is hemoglobin metabolism in P. falciparum ring and trophozoite stage parasites. The data set is described as follows: Effect on hemoglobin degradation (intraparasitic hemoglobin content). It counts as cell-based, Plasmodium falciparum. The following applies: 10 μM, 24 h, relative to E64-treated cultures; listed as (±)-moxiquindole. As to the method: Owing to the fact that the DSIIQs are constructed from the THIQ pharmacophore of naphthylisoquinolines, which appear to target proteases involved in hemoglobin degradation, we assessed the effect of this DSIIQ on hemoglobin metabolism. Briefly, tightly synchronized ring and trophozoite stage parasites were treated with test compounds for 24 h followed by parasite isolation and quantification of the intraparasitic hemoglobin contents.
To investigate drug effects on hemoglobin degradation, early ring and mid-trophozoite stage parasites (1.5% hematocrit, 5% parasitemia) were co-cultured with the test compounds or experimental controls (0.1% DMSO, chloroquine, artemisinin NITD609 and E64) at a final concentration of 10 μM. The cultures were incubated at 37° C. and 5% CO2 for 24 h. Following incubation, inhibitors were removed by centrifugation at 1800 rpm for 5 min. The pellets were washed in an equal volume of 1×PBS and re-suspended in same volume of 0.1% saponin (in 1×PBS) for 3 min. Isolated parasites were pelleted at 2500 rpm for 5 min and washed twice in an equal volume of 1×PBS. The resulting parasite pellets were permeabilized by treatment in 20 μL of 1% Triton X-100 (in 1×PBS) for 5 min. Intraparasitic hemoglobin content was measured at 550 nm using a Nanodrop spectrophotometer, and folds increase in intra-parasite hemoglobin content was calculated relative to the E64-treated controls.

Experimental findings from patent US20230132973A1, “DIHYDRO-SPIRO[INDOLINE-3:1'-iSOQUINOLIN]-2-ONES AS ANTIMALARIAL AGENTS” (The University of Buea, priority 2020, published 2023) are described below.

Entries after “also recorded” stand apart in the source; their conditions may differ. Read-outs that look alike come from different tables or passages of the source.

As for `COc1cc2c(cc1OC)C1(NCC2)C(=O)Nc2ccc(Cl)cc21` (stereo not drawn) [Compound 8b], the “dose-response curve within the tested drug concentration range” value in data set [1] (Pf 3D7, 0.078 μM to 10 μM) was “complete sigmoidal dose-response curve”. The EC50 in data set [1] (Pf 3D7, 0.078 μM to 10 μM, listed as (±)-moxiquindole) was 1850 nM; in data set [1] (Pf 3D7, 0.078 μM to 10 μM), less than 2000 nM; in data set [2] (Pf Dd2), 1730 nM; in data set [2] (Pf Dd2, 0.078 μM to 10 μM), 1730 nM. Also, the “parasite growth inhibition in primary assays” value in data set [1] (primary screening at 10 μM, Pf 3D7, 72 h) is approximately 97%. For the same compound, the cross-resistance index in data set [2] is on record as 0.935. Also, the cytotoxic concentration (CC50) is more than 100 µM in data set [3] (MTT) and more than 100 µM in data set [4] (SW872, MTT). In addition, the cell viability result in data set [3] (up to 100 μM compound concentration, 48 h) is “no significant decrease in cell viability”; in data set [4] (SW872, up to 100 μM compound concentration, 48 h), “no significant decrease in cell viability”. In data set [5], the “intraparasitic hemoglobin content / accumulation” value was “significantly higher; also recorded: accumulation of intra-parasitic hemoglobin”.
